{"source": "patent US10583119B2", "about": "“Compounds, compositions and methods for making the same” (Signum Biosciences, Inc., priority 2008, dated 2020)", "key": {"[1]": {"target": "T1, protein phosphatase 2A specific methyltransferase (MTase) (Homo sapiens, UniProt Q9UIC8)", "T1 construct": "His; made in house", "T1 sequence (Q9UIC8 whole entry)": "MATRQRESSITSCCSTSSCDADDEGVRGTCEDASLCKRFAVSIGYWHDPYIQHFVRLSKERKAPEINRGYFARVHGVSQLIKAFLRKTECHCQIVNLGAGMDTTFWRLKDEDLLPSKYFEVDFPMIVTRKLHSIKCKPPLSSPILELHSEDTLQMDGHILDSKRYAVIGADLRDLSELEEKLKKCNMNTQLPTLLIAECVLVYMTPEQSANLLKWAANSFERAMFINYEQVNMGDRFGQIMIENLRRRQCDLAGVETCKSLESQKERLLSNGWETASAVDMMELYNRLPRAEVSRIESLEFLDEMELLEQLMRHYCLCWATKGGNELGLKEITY", "test": "PP2A methylation in 96-well plate format (methyltransferase activity)", "type": "biochemical", "conditions": "purified PP2A, MTase and [3H]-SAM; read-out: MT (IC50)", "description": "Purified PP2A, MTase and [^3H]-SAM, were incubated in reaction buffer at 37° C. At the end of the reaction, mixture was added onto the membranes of 96-well filter plate (Multiscreen™, Millipore). The membranes were then pre-wetted with 70% ethanol (50 μL/well) and then subsequently washed with water (2×200 μL/well). The reaction in each well was terminated and the proteins (5 μL-20 μL) were precipitated by adding 25% ice-cold TCA. The plate was kept on ice for 30 minutes to ensure completion of protein precipitation. Excess of the free SAM was then removed by washing with 5% cold TCA ([…]) and 70% cold ethanol (2×100 μL/well). Membranes were air-dried, radioactivity in each well was counted by TopCount^NXT scintillation counter (Packard) with 25 μL/well of Microsinct™ 20 (PerkinElmer)."}, "[2]": {"tested_on": "Swiss-Webster (wild-type) mice", "test": "Glucose metabolism (intraperitoneal glucose tolerance test, body weight) in wild-type mice", "type": "in vivo", "conditions": "0.1% in diet for 128 days", "excerpt": "The glucose tolerance test (GTT) measures the body's ability to metabolize glucose. It is currently used to diagnose patients with prediabetes disposition and diabetes.\nTwenty (20) Swiss-Webster (wild-type) mice were acclimated for 2 weeks. The mice were ear notched for identification and housed in individually and negatively ventilated polycarbonate cages with HEPA filtered air at a density of 6 mice per cage. Bed-o-cob corn cob bedding was used and cages were changed every two weeks. The animal room was lighted entirely with artificial fluorescent lighting, with a controlled 12 h light/dark cycle (7 am to 7 pm light). The normal temperature and relative humidity ranged in the animal rooms are 22±4° C. and 50±15%, respectively. The animal rooms were set to have 15 air exchanges per hour. Filtered tap water, acidified to a pH of 2.8 to 3.2. LabDiet D10001 was provided ad libitum, and leftover food was removed once per week.\nFollowing acclimation, mice are assigned to groups according to diet. • 1. Control Diet (D10001) • 2. Compound I-63 ((D10001 with 0.1% 1-63)\nThe mice were maintained on the diet for 128 days. […] Mice were weighed and glucose dose calculated for […] body weight. […] Blood glucose levels were measured with the OneTouch UltraSmart electronic glucometer at time point O with tail vein blood. […] Blood glucose was measured at 15, 30, 45, 90 and 120 minutes after glucose injection."}, "[3]": {"tested_on": "MPTP Mouse Model of Parkinson's Disease", "test": "MPTP-induced neurotoxicity in MPTP mouse model of Parkinson's disease (striatal tyrosine hydroxylase ELISA)", "type": "in vivo, C57BL/6J mice", "conditions": "acute MPTP 10 mg/kg four times, striatum", "excerpt": "MPTP (1-methyl-4-phenyl-1,2,3,6-tetrahydropyridine) is routinely used as a chemical agent that induces Parkinson's disease-like neurodegeneration in cellular and animal models. Both Parkinson's Disease and MPTP-induced neurotoxicity are associated with a number of different biomarkers including reduction of tyrosine hydroxylase levels and activity. Tyrosine hydroxylase is a key enzyme in the dopamine biosynthesis pathway as it is involved in the conversion of tyrosine to […]. Tyrosine hydroxylase activity is regulated by its phosphorylation status and PP2A is known to be involved in this regulation.\nC57BL/6J mice, aged 2-3 months were fed ad libitum, either standard rodent chow (Control), or rodent chow formulated with 0.1 g Compound I-63, or 0.001 g Compound I-63 per 100 g chow (0.1% and 0.001% Compound I-63, respectively); water was changed weekly. Mice were housed at 23° C., on a 12 hour light and dark cycle, with 6 mice per cage. After 2 weeks, 8-12 mice each from the Control, 0.1% Compound 1-63 and 0.001% Compound I-63 groups were injected with either saline, or 10 mg/kg MPTP i.e., four times, every 2 hours, on the same day. Mice were then maintained on their respective feeds for another week, at which point they were sacrificed by cervical dislocation and brains dissected for biochemical analyses.\nStriatal tyrosine hydroxylase (TH) content was measured by ELISA as follows. Ninety-six well microliter plates (Thermo Labsystems) were incubated overnight at 4° C. with monoclonal anti-TH antibody (1:500; Calbiochem) in 8 mM sodium phosphate, 2 mM potassium phosphate, and 0.14 M sodium chloride, pH 7.4 (PBS). Wells were washed four times with PBS and then blocked for 1 hour using 5% (w/v) Carnation (Nestle) nonfat dry milk in PBS. Striatal tissue samples were homogenized by sonication in PBS-0.5% Triton X-100 (PBST) with 0.25% (w/v) SDS. […] The reaction product was measured fluorometrically within the linear range of detection (excitation:emission ratio of 530:580 nm). […] Data were expressed as percent TH levels in MPTP-treated mice relative to saline-injected mice. […]"}}, "note": "Entries after “also recorded” stand apart in the source; their conditions may differ."}
{"smiles": "CCCCCCCCCCCCCCCCCCCC(=O)NCCc1c[nH]c2ccc(O)cc12", "note": "[Compound I-63, N-(2-(5-hydroxy-1H-indol-3-yl)ethyl)icosanamide]", "values": [{"measurement": "IC50", "setting": "[1]", "result": "10 to 100", "unit": "µM"}, {"measurement": "glucose tolerance in intraperitoneal glucose tolerance test", "setting": "[2]", "result": "consistently lower glucose levels; also recorded: improved glucose tolerance"}, {"measurement": "incremental area under the curve of blood glucose levels in the glucose tolerance test compared to control diet", "setting": "[2]", "result": "< 10", "unit": "%"}, {"measurement": "rescuing of the tyrosine hydroxylase defect", "setting": "[3]; 0.001% diet", "result": "approximately 20%"}, {"measurement": "rescuing of the tyrosine hydroxylase defect", "setting": "[3]; 0.1% diet", "result": "approximately 20%"}]}
